Measured values as given in patent US20260325490A1, “ORAL FORMULATIONS OF EDARAVONE AND IMPROVED METHOD OF MANUFACTURING THEREOF” (BDR PHARMACEUTICALS INTERNATIONAL PRIVATE LIMITED, priority 2022, published 2026).

How the values were obtained:
[1] = Chemical stability of Edaravone (hydrolysis, oxidation); format: physicochemical; settings: aqueous solution, compared to the powdered form
Text: It may be noted that the efficacy of Edaravone has seen an undisputed success since its inception in the therapeutic category of stroke management. Edaravone per se has wide applicability and has potential to be used for more therapeutic indications. The injectable dosage form has been a limiting factor in case of increased use of this product. Importantly, developing an oral dosage form of Edaravone is a challenging process due to its less soluble and less permeable (BCS Class-IV product) nature. Further, an injectable dosage form has inherent difficulty in terms of its usage post hospitalization. […] The inventors of the present invention during development have noted that it was difficult to stabilize Edaravone.

[2] = cited from earlier work
[3] = cited from earlier work; remark: listed apart in the source

CC1=NN(c2ccccc2)C(=O)C1 [Edaravone, 3-methyl-1-phenyl-2-pyrazolin-5-one]
Decomposition by oxidation [1]: easily decompose by oxidation | Solubility in acetic acid ([2]; acetic acid): freely soluble | Solubility in diethyl ether ([2]; diethyl ether): slightly soluble | Solubility in ethanol ([2]; ethanol): freely soluble | Solubility in methanol ([2]; methanol): freely soluble | Solubility in water ([2]; water): slightly soluble | Lipid permeability [3]: lower lipid permeability | Bio-pharmaceutics Classification System (BCS) class ([3]; poor solubility in water and lower lipid permeability): Class IV
